# Active and inactive are the calls of the source. The calls are words filed in the database; no cut-off is given here.
# Experiments:
# [1] = Phototoxicity against human A549 cells assessed as reduction in cell viability preincubated for 24 hrs followed by 7.5 to 10 mW/cm^-2 red light irradiation and measured after 24 hrs by MTT assay; format: functional, cell-based; settings: A549, light or radiation study
# A549 [2] = test: Induction of apoptosis in human A549 cells assessed as late apoptotic/necrotic cells at 500 nM preincubated for 24 hrs followed by irradiated with 7.5 to 10 mW/cm^-2 red light for 24 hrs by Annexin V and propidium iodide staining based flow cytometry relative to control; format: functional; settings: time 48 hrs
# A549 [3] = test: Dark toxicity against human A549 cells assessed as reduction in metabolic activity at 10 uM incubated for 4 hrs by MTT assay; format: cell-based; settings: a549, 4 h
# NCI-H1299 [4] = test: Induction of apoptosis in human NCI-H1299 cells assessed as early apoptotic cells at 100 nM preincubated for 24 hrs followed by irradiated with 7.5 to 10 mW/cm^-2 red light for 24 hrs by Annexin V and propidium iodide staining based flow cytometry relative to control; format: functional; settings: time 48 hrs
# NCI-H1299 [5] = test: Dark toxicity against human NCI-H1299 cells assessed as reduction in metabolic activity at <1 uM incubated for 4 hrs by MTT assay; format: cell-based; settings: nci-h1299, 4 h
# A549 [6] = test: Dark toxicity against human A549 cells assessed as reduction in metabolic activity at <1 uM incubated for 4 hrs by MTT assay; format: cell-based; settings: a549, 4 h
# NCI-H1299 [7] = test: Induction of apoptosis in human NCI-H1299 cells assessed as late apoptotic/necrotic cells at 100 nM preincubated for 24 hrs followed by irradiated with 7.5 to 10 mW/cm^-2 red light for 24 hrs by Annexin V and propidium iodide staining based flow cytometry relative to control; format: functional; settings: time 48 hrs
# A549 [8] = test: Induction of apoptosis in human A549 cells assessed as viable cells at 500 nM preincubated for 24 hrs followed by irradiated with 7.5 to 10 mW/cm^-2 red light for 24 hrs by Annexin V and propidium iodide staining based flow cytometry relative to control; format: functional; settings: A549, light or radiation study, time 48 hrs, read-out: Activity
# NCI-H1299 [9] = test: Induction of apoptosis in human NCI-H1299 cells assessed as late apoptotic/necrotic cells at 500 nM preincubated for 24 hrs followed by irradiated with 7.5 to 10 mW/cm^-2 red light for 24 hrs by Annexin V and propidium iodide staining based flow cytometry relative to control; format: functional; settings: time 48 hrs
# A549 [10] = test: Induction of apoptosis in human A549 cells assessed as reduction in viable cells at 100 nM preincubated for 24 hrs followed by irradiated with 7.5 to 10 mW/cm^-2 red light for 24 hrs by Annexin V and propidium iodide staining based flow cytometry relative to control; format: functional; settings: time 48 hrs
# [11] = Fluorescence property of the compound in THF assessed as fluorescence quantum yield by photoluminescence quantum yield spectrometer; format: physicochemical
# [12] = Fluorescence property of the compound in DMSO assessed as fluorescence quantum yield by photoluminescence quantum yield spectrometer; format: physicochemical
# [13] = Induction of singlet oxygen generation in THF assessed as singlet oxygen quantum yield by comparative photoluminescence method; format: functional
# A549 [14] = test: Induction of apoptosis in human A549 cells assessed as late apoptotic/necrotic cells at 100 to 500 nM preincubated for 24 hrs followed by irradiated with 7.5 to 10 mW/cm^-2 red light for 24 hrs by Annexin V and propidium iodide staining based flow cytometry relative to control; format: functional; settings: dose 100-500 nM, time 48 hrs
# A549 [15] = test: Induction of apoptosis in human A549 cells assessed as early apoptotic cells at 100 to 500 nM preincubated for 24 hrs followed by irradiated with 7.5 to 10 mW/cm^-2 red light for 24 hrs by Annexin V and propidium iodide staining based flow cytometry relative to control; format: functional; settings: dose 100-500 nM, time 48 hrs
# NCI-H1299 [16] = test: Induction of apoptosis in human NCI-H1299 cells assessed as early apoptotic cells at 500 nM preincubated for 24 hrs followed by irradiated with 7.5 to 10 mW/cm^-2 red light for 24 hrs by Annexin V and propidium iodide staining based flow cytometry relative to control; format: functional; settings: time 48 hrs
# NCI-H1299 [17] = test: Dark toxicity against human NCI-H1299 cells assessed as reduction in metabolic activity at 10 uM incubated for 4 hrs by MTT assay; format: cell-based; design: scale not given: the % may be the effect or the level left; settings: nci-h1299, 4 h
# NCI-H1299 [18] = test: Induction of apoptosis in human NCI-H1299 cells assessed as appearance of necrosis at 100 to 250 nM preincubated for 24 hrs followed by irradiated with 7.5 to 10 mW/cm^-2 red light for 24 hr by May-Grunwald/Giemsa staining by light microscopic analysis; format: functional, cell-based; settings: dose 100-250 nM, time 48.0 hrs
# NCI-H1299 [19] = test: Induction of apoptosis in human NCI-H1299 cells assessed as reduction in viability at 100 to 500 nM preincubated for 24 hrs followed by irradiated with 7.5 to 10 mW/cm^-2 red light for 24 hrs by Annexin V and propidium iodide staining based flow cytometry relative to control; format: functional; settings: dose 100-500 nM, time 48 hrs
# [20] = Phototoxicity against human NCI-H1299 cells assessed as reduction in cell viability preincubated for 24 hrs followed by 7.5 to 10 mW/cm^-2 red light irradiation and measured after 24 hrs by MTT assay; format: functional, cell-based; settings: NCI-H1299, light or radiation study
structure (smiles),measurement,setting,value
C/C(=N\NS(=O)(=O)c1ccc(C)cc1)c1c2nc(c(-c3ccccc3)c3ccc([nH]3)c3ccc([nH]3)c(-c3ccccc3)c3ccc1[nH]3)C=C2,IC50,[1],101 nM
same,Activity,A549 [2],92.7%
same,Activity,A549 [3],Non-toxic
same,Activity,NCI-H1299 [4],12.7%
same,Activity,NCI-H1299 [5],Non-toxic
same,Activity,A549 [6],Non-toxic
same,Activity,NCI-H1299 [7],23.2%
same,viability at 0.5 µM,A549 [8],2%
same,Activity,NCI-H1299 [9],75.5%
same,Activity,A549 [10],48%
same,Activity,[11],0.114
same,Activity,[12],0.282
same,Activity,[13],0.26
same,Activity,A549 [14],24.6%
same,Activity,A549 [15],16.9%
same,Activity,NCI-H1299 [16],19.8%
same,Activity,NCI-H1299 [17],73.8%
same,Activity,NCI-H1299 [18],Active
same,Activity,NCI-H1299 [19],>=75%
same,IC50,[20],52.3 nM

# — ChEMBL document CHEMBL6087389, “Hydrazone-Functionalized trans-A2B-Corroles: Effective Synergy in Photodynamic Therapy of Lung Cancer” (J Med Chem, 2024)
